Laboratory results reported in patent US6126909A, “Process and apparatus for the production of BI-212 and a use thereof” (Arch Development Corporation, priority 1999, dated 2000).
Where “and” joins values, the source holds several entries; their conditions need not be identical. Identical values can stand only once.

Columns and labels:
[1] = Biodistribution after intraperitoneal instillation; format: in vivo, rabbit
Protocol: (§1) In vivo studies were conducted to determine the distribution of Bi-212 produced using the above-noted process and to compare the Bi-212 distribution to the distribution of Pb-212 ferrous hydroxide in colloidal form. The in vivo studies were conducted using white, female New Zealand rabbits weighing about 4.5 kilograms ([…]) each. Studies were also conducted using rabbits to determine the toxicity levels, e.g., the maximum tolerated dose. Efficacy studies were conducted using 25 gram (gm) female Swiss-Webster mice inoculated with Ehrlich-Lettre Ascites carcinoma cells.
The rabbits were first anesthetized by intravenous titration. A polyethylene catheter was then inserted into the lower right quadrant of the rabbits' abdominal cavities and a trace amount of technetium-99m pertechnetate was instilled to confirm that the catheter was correctly placed.
(§2) Groups of rabbits were instilled with a varying amounts (correlating to varying activities) of Bi-212 that were prepared in accordance with the before-described process, neutralized to pH values of between 5.0 and 7.4, and had added thereto a quantity of normal saline to make a 200 cc sample. To compare the distribution of Bi-212, Pb-212 ferrous hydroxide was prepared in accordance with known methods. Rotmensch et al., Gynecol. Oncol., 35:297-300 (1989). Groups of rabbits were also instilled with the Pb-212 ferrous hydroxide preparation.
After instillation, the rabbits were rotated and imaged with a gamma camera set at 2.6 MeV. Where localization of the nuclide was identified in the rabbits, the rabbits were sacrificed and the localized area was excised and photographed.
(§3) Of the groups of rabbits instilled with the Bi-212 solution, a rabbit was imaged and necropsied at each of one-half hour, one hour and three hours after instillation. The percent injected activity (%IA) in each organ was measured to determine the distribution of the Bi-212(Table 6). To determine whether chelating to DTPA improved the retention of Bi-212 in the peritoneal fluid, a group of rabbits was instilled with Bi-212 DTPA, and was imaged and necropsied at three hours following instillation. The percent activity remaining in the peritoneal fluid was measured.

[2] = Retention of chelated and non-chelated Bi-212 in peritoneal fluid; format: in vivo, rabbit; conditions: rabbits, 3 hours after instillation
Protocol: as §2, §3

[3] = Retention after intraperitoneal injection in mice; format: in vivo, mouse
[4] = system: Ehrlich-Lettre Ascites carcinoma cells; experiment: Efficacy study in mice inoculated with carcinoma cells; format: in vivo, mouse; conditions: 100 μCi i.p.
Protocol: as §1
Efficacy studies were conducted using groups of five 25 gm female Swiss-Webster mice that were intraperitoneally inoculated with 10^6 Ehrlich-Lettre Ascites carcinoma cells. The mice were subsequently instilled with 100 μCi of Bi-212 in up to 1 cc normal saline 48 hours after inoculation with the Ehrlich-Lettre Ascites carcinoma cells. The mice were sacrificed at one-half hour, one hour and 3 hours after instillation with the Bi-212 solution. Control groups were inoculated with the Ehrlich-Lettre Ascites carcinoma cells only.

[5] = Estimated radiation dose in humans; design: species or system human; Gamma dose/100 mCi / Alpha dose/100 mCi / Total dose: unit: cGy; conditions: for Total dose / Calculated alpha dose / Calculated gamma dose: 100 mCi
Excerpt: Based upon the in vivo studies, a contemplated dose of 100 mCi to a human produces an alpha and gamma dose to any organ of less than 150 cGy. The calculated alpha dose to the gastrointestinal tract, liver and kidneys is 87.7, 24.6 and 92.5 cGy, respectively, and the calculated gamma dose is 7.39, 4.14 and 5.00 cGy, respectively. Table 9, below, provides the estimated total dose in humans based upon an initial dose of 100 mCi of Bi-212.

[6] = 1/2 hour after intraperitoneal instillation
[7] = 1 hour after intraperitoneal instillation
[8] = 3 hours after intraperitoneal instillation

## [212Bi] [Bi-212, bismuth-212]
[1]; [6]
  Peritoneal fluid: 85.0 % IA and 70.3 % IA and 90.1 % IA
  Stomach: 0.26 % IA and 0.34 % IA
[1]; [7]
  Lower intestine & colon: 0.87 % IA
  Peritoneal fluid: 85.7 % IA and 85.1 % IA and 88 % IA
  Stomach: 0.09 % IA
[1]; [8]
  Circulating blood: 3.4 % IA and 1.86 % IA and 2.96 % IA
  Kidney: 2.15 % IA and 1.21 % IA and 2.10 % IA
  Liver: 2.26 % IA and 2.25 % IA and 1.17 % IA
  Lower intestine & colon: 7.14 % IA and 5.87 % IA and 9.14 % IA
  Peritoneal fluid: 75.8 % IA and 80.2 % IA and 83.8 % IA
  Reproductive organs: 0.53 % IA and 0.61 % IA and 0.59 % IA
  Stomach: 0.90 % IA and 0.76 % IA and 0.59 % IA
  Upper small intestine: 8.04 % IA and 6.63 % IA and 9.73 % IA
[2]
  % activity in blood volume: 4.5%
  % activity in peritoneal fluid: 80%
  % activity in urine: 6.0%
[3]; 1 min
  Carcass: 88.3 % IA
  Urine: 0.025 % IA
[3]; 10 min
  Carcass: 87.3 % IA
  Urine: 2.2 % IA
[3]; 16 min
  Carcass: 66.8 % IA
  Stool: 0.20 % IA
  Urine: 2.9 % IA
[3]; 30 min
  Carcass: 79.1 % IA
  Stool: 0.53 % IA
  Urine: 6.9 % IA
[3]; 61 min
  Carcass: 68.5 % IA
  Stool: 1.3 % IA
  Urine: 15.9 % IA
[3]; 120 min
  Carcass: 62.9 % IA
  Stool: 6.7 % IA
  Urine: 19.5 % IA
[3]; 180 min
  Stool: 8.3 % IA
  Urine: 24.8 % IA
[3]; 180 min (3 hours)
  Carcass: 61.4 % IA
[4]; 48 hours after 10^6 cells, after treatment
  Median survival time: 82 days
[4]; 3 months later
  Cure with no evidence of disease: 40%
[5]; GI tract
  Alpha dose/100 mCi: 87.7
  Gamma dose/100 mCi: 7.39
  Total dose: 95.1
[5]; brain
  Alpha dose/100 mCi: 2.45
  Gamma dose/100 mCi: 0.038
  Total dose: 2.49
[5]; breasts
  Alpha dose/100 mCi: 2.45
  Gamma dose/100 mCi: 0.643
  Total dose: 3.09
[5]; contemplated dose of 100 mCi to a human
  Alpha and gamma dose to any organ: less than 150 cGy
[5]; gastrointestinal tract
  Calculated alpha dose: 87.7 cGy
  Calculated gamma dose: 7.39 cGy
[5]; kidneys
  Alpha dose/100 mCi: 92.5
  Gamma dose/100 mCi: 5.00
  Calculated alpha dose: 92.5 cGy
  Calculated gamma dose: 5.00 cGy
  Total dose: 97.5
[5]; liver
  Alpha dose/100 mCi: 24.6
  Gamma dose/100 mCi: 4.14
  Calculated alpha dose: 24.6 cGy
  Calculated gamma dose: 4.14 cGy
  Total dose: 28.7
[5]; lungs
  Alpha dose/100 mCi: 2.45
  Gamma dose/100 mCi: 1.33
  Total dose: 3.78
[5]; ovaries
  Alpha dose/100 mCi: 102.4
  Gamma dose/100 mCi: 5.42
  Total dose: 107.8
[5]; pancreas
  Alpha dose/100 mCi: 2.45
  Gamma dose/100 mCi: 17.2
  Total dose: 19.7
[5]; red marrow
  Alpha dose/100 mCi: 2.45
  Gamma dose/100 mCi: 2.30
  Total dose: 4.75
[5]; remainder
  Alpha dose/100 mCi: 2.45
  Gamma dose/100 mCi: 1.78
  Total dose: 4.23
[5]; thyroid
  Alpha dose/100 mCi: 2.45
  Gamma dose/100 mCi: 0.154
  Total dose: 2.60
[5]; total body
  Alpha dose/100 mCi: 2.45
  Gamma dose/100 mCi: 1.83
  Total dose: 4.28
[5]; uterus
  Alpha dose/100 mCi: 102.4
  Gamma dose/100 mCi: 21.2
  Total dose: 123.6
